Assay in all cases: Isozyme specificity of 1,2-dioxetane substrates, rhCYP microsomes, 2-step endpoint assay
For data set [1], the system named is 2C19 and 2C18 isozymes. Type of data set: biochemical, human. The note with it: dioxetane as enzyme substrate. The protocol: (§1) Assays were performed using the same conditions (25° C., 5 nM rhCyp, 10 μM substrate, 25 min endpoint assay, with isozyme-specific buffers, Luminoscan plate reader) but on different days.
Cytochrome P450 assays have been developed to determine the isozyme specificity of novel 1,2-dioxetane chemiluminescent CYP450 substrates. In these assays, a 1,2-dioxetane substrate that has been determined to be a good substrate for a specific CYP450 isozyme is screened against individual recombinant (human or other) CYP450 isozymes. The protocol follows the 2-Step Endpoint assay format described above (Example 2, Format 1). The assay can be performed using either assay conditions that mimic an inhibition assay (Example 1) using substrate concentrations near the known or predicted Km of the substrate with its known isozyme, or at concentrations designed for more sensitive enzyme detection which is generally above the Km. Assays can be performed in several different ways depending on the desired information. If one is seeking to find out if the dioxetane is a substrate for different CYP450 isozymes at the specific isozyme's preferred assay conditions, the assays should be performed using the buffer and assay conditions preferred by each specific isozyme (Format 1). If one wants to find out if the dioxetane substrate is selective for a given CYP450 isozyme at that isozyme's preferred assay conditions, the assay should be performed using only the assay conditions of the matched isozyme (Format 2). Assays use recombinant human (rh) CYP450 isozymes (final [5 or 10 nM]), NADPH Regeneration System (final [1×]) and Potassium Phosphate Buffer prepared in a 2× Master Mix. 50 μL of the Master Mix is added to the wells of a 96-well plate. 40 μL of water is added the rows of the plate containing the Master Mix. The reaction is started by addition of 10 μL of a 10× NADP+ (nicotinamide adenine dinucleotide phosphate) and 1,2-Dioxetane Substrate (final [1 to 10 μM]) mix to assay wells. The assays are incubated for either 25 min (Format 1) or at the specific assay time (see Example 48, Format 2). […]

Data set [2] concerns the target T1, CYP2C19 (Homo sapiens, UniProt P33261).
T1 construct: purchased BD/Gentest (or other vendor) 456259; host or cells: recombinant human CYP microsomes
The class given is biochemical. Here is the method:
as §1
(§2) Cytochrome P450 assays have been developed to determine the isozyme specificity of novel 1,2-dioxetane chemiluminescent CYP450 substrates. In these assays, a 1,2-dioxetane substrate that has been determined to be a good substrate for a specific CYP450 isozyme is screened against individual recombinant (human or other) CYP450 isozymes. The protocol follows the 2-Step Endpoint assay format described above (Example 2, Format 1). The assay can be performed using either assay conditions that mimic an inhibition assay (Example 1) using substrate concentrations near the known or predicted Km of the substrate with its known isozyme, or at concentrations designed for more sensitive enzyme detection which is generally above the Km. Assays can be performed in several different ways depending on the desired information. If one is seeking to find out if the dioxetane is a substrate for different CYP450 isozymes at the specific isozyme's preferred assay conditions, the assays should be performed using the buffer and assay conditions preferred by each specific isozyme (Format 1). If one wants to find out if the dioxetane substrate is selective for a given CYP450 isozyme at that isozyme's preferred assay conditions, the assay should be performed using only the assay conditions of the matched isozyme (Format 2). Assays use recombinant human (rh) CYP450 isozymes (final [5 or 10 nM]), NADPH Regeneration System (final [1×]) and Potassium Phosphate Buffer prepared in a 2× Master Mix. 50 μL of the Master Mix is added to the wells of a 96-well plate. 40 μL of water is added the rows of the plate containing the Master Mix. The reaction is started by addition of 10 μL of a 10× NADP+ (nicotinamide adenine dinucleotide phosphate) and 1,2-Dioxetane Substrate (final [1 to 10 μM]) mix to assay wells. The assays are incubated for either 25 min (Format 1) or at the specific assay time (see Example 48, Format 2).
(§3) • (See FIGS. 3A, 4A, and 5A.) Materials: • rhCytochrome P450 Isozymes: • CYP3A4 (BD/Gentest, Cat #456202) (or other vendor) • CYP2C19 (BD/Gentest, Cat #456259) (or other vendor) • CYP2C9 (BD/Gentest, Cat #456258) (or other vendor) • CYP2D6 (BD/Gentest, Cat #456217) (or other vendor) • CYP1A2 (BD/Gentest, Cat #456203) (or other vendor) • Or Other CYP450 recombinant isozymes • 200 mM Potassium Phosphate Buffer, pH 7.4 • 100 mM Potassium Phosphate Buffer, pH 7.4 • 100× NADP+ • (10 mM NADP+ in 100 mM Potassium phosphate buffer, pH 7.4) • 100× Regeneration System • (333 mM Glucose-6-phosphate, 30 Units/mL Glucose-6-phosphate dehydrogenase in 100 mM Potassium Phosphate Buffer, pH 7.4) • 1,2-Dioxetane Substrates (in 100% Acetonitrile, water, or acetonitrile/water mixture) • 96 well white microplate • Accelerator II Protocol Overview: (See, FIG. 10). Assay Set-Up:
(§4) Contains: • NADP+: 100× stock is 10 mM NADP+ in 100 mM Potassium Phosphate Buffer, pH 7.4 • 100 μM Known 1,2-Dioxetane Substrate Assay Procedure: • 1. Thaw all reagents on ice, except substrates: warm-up to RT under aluminum foil (light sensitive) • 2. Prepare 2× Master Mixes in 2× reaction buffer (keep on ice).
(§5) • 3. Add 50 μL of the specific 2× Master Mix to the desired wells • 4. Add 40 μL of sterile water (H2O) to each well of the plate • 5. Cover plate with plate sealer and let the assay wells equilibrate to 25° C. or room temperature for a few minutes while you prepare the 10×NADP+/Substrate Mixture. • 6. Prepare 10× NADP+/Substrate Mixture immediately before use (light sensitive!)
(§6) • 100× NADP+: 10× (1× final) • H2O: to final volume. • Add substrate by trituration and vortex to allow for maximum substrate solubility in the aqueous mixture. • *The final organic solvent concentration in the assay should be less than 0.1% and preferably much less. • 7. […]

Data set [3] relates to other CYP isozyme. The class given is biochemical, human. The note with it: FIG. 5A, 25° C., 25 min, 10 μM BZT-Me, 5 nM rhCYP450. The protocol:
FIG. 5A and FIG. 5B compare CYP450 isozyme specificity of 1,2-dioxetane substrate BZT-Me in recombinant human microsomes (rhCYPs) and human liver microsomes. FIG. 5A is a graphic representation of isozyme specificity of BZT-Me in rhCYP microsomes. Assays were performed ate 25° C. for 25 min using 10 μM BZT-Me, 5 nM rhCYP450, and isozyme-preferred potassium phosphate buffer, pH 7.4. […] FIG. 5B is a graphic representation of isozyme specificity of BZT-Me in pooled human liver microsomes (HLMs). Assays were performed for 25 min at 25° C. using 20 μM BZT-Me and 50 mM potassium phosphate buffer, pH 7.4. Positive (2C19) and negative (3A4, 2D6, and microsome only) controls were performed using 5 nM rhCYP450 microsomes. Pooled HLMs or low 2C19 HLMs were assayed at 0.5, 0.25, 0.125, or 0.0625 mg/ml. Assays were performed with or without 2 μM ketoconazole to indicate CYP3A family specificity or 0.5 μM miconozole. All assays were performed using the 2-step assay method (Example 48, Format A).
Cytochrome P450 assays have been developed to determine the isozyme specificity of novel 1,2-dioxetane chemiluminescent CYP450 substrates. In these assays, a 1,2-dioxetane substrate that has been determined to be a good substrate for a specific CYP450 isozyme is screened against individual recombinant (human or other) CYP450 isozymes. […]

Data set [4] has as its system CYP3A family isozymes. The class given is biochemical, human. The note with it: dioxetane as enzyme substrate. The protocol: as §1, §2, §3, §4, §5, §6
For data set [5], the target named is T2, CYP2C8 (Homo sapiens, UniProt P10632).
T2 construct: host or cells: recombinant human CYP microsomes
T2 sequence (P10632 1-490): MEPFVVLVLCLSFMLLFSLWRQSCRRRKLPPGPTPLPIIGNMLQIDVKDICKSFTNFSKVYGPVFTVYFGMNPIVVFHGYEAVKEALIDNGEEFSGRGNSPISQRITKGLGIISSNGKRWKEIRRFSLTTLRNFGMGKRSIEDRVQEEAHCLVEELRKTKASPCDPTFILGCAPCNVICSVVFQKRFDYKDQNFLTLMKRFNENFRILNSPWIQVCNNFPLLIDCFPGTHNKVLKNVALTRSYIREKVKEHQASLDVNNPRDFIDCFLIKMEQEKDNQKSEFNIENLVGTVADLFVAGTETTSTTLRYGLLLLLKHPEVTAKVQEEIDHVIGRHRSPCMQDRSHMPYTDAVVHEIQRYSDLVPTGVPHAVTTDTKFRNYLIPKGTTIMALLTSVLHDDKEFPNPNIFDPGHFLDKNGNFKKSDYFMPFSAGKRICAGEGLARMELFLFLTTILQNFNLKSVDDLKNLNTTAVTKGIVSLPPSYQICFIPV
Type of data set: biochemical. Conditions: dioxetane as enzyme substrate. Here is the method: as §1, §2, §3, §4, §5, §6

T1 sequence (P33261 whole entry): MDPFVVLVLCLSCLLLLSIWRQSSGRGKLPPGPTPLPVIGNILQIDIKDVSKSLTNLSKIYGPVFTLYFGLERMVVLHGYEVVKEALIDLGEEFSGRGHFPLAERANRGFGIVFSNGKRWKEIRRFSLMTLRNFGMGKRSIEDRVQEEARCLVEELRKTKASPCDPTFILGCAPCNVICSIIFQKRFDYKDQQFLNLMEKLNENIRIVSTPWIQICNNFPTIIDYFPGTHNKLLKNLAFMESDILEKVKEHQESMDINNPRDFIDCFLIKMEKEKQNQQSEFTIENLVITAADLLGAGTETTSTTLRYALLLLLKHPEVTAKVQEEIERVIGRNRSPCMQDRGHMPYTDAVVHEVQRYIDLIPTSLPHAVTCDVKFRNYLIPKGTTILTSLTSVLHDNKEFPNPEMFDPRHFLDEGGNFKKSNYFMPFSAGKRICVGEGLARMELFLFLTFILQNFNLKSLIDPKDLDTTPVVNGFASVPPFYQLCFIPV

`COc1cc(C2(OC)OOC23C2CC4CC3CC(Cl)(C4)C2)ccc1Cl` (stereo not shown) [CDP-Star-Me]: in data set [1], the “specificity for 2C19 and 2C18 isozymes” value is “strong specificity”. Take `COc1ccc2sc(C3(OC)OOC34C3CC5CC(C3)CC4C5)cc2c1` (stereo not shown) [BZT-Me]: the “specificity for the CYP2C19 isozyme” value in data set [2] (FIG. 4A/5A, rhCYP microsomes, 25° C., 25 min, 10 μM substrate, 5 nM rhCYP450, isozyme-preferred potassium phosphate buffer, pH 7.4) was “strong specificity”. The “specificity for 2C19 and 2C18 isozymes” value in data set [1] is “strong specificity”. In addition, in data set [3], the “oxidation by other CYP isozyme” value was “also oxidized”. `COC1(c2ccc(Cl)c(OCc3ccccc3)c2)OOC12C1CC3CC2CC(Cl)(C3)C1` (stereo not shown) [CDP-Star-Bn]: the “activity from CYP2C19 under CYP2C19 assay conditions” value in data set [2] (dioxetane as enzyme substrate, CYP2C19 assay conditions) was “significant activity”. In data set [4], the “specificity for the CYP3A family isozymes” value is “strong specificity”.

Turning to `CCOc1cccc(C2(OC)OOC23C2CC4CC3CC(OCCC(C(=O)[O-])C(=O)[O-])(C4)C2)c1.[Na+].[Na+]` (stereo not shown) [bis-CO2Na-Ad-Ph-OEt dxt], the “specificity for CYP2C8” value in data set [5] is on record as “high specificity”. Regarding `CCOc1cccc(C2(OC)OOC23C2CC4CC3CC(OCC[N+](C)(CC)CC)(C4)C2)c1` (stereo not shown) [Q+-Amino-Ad-Ph-OEt, Q^+-Amino-Ad-Ph-OEt dxt], the “specificity for the CYP3A family isozymes” value in data set [4] is “strong specificity”. For the compound `COc1ccc2sc(C3(OC)OOC34C3CC5CC(C3)CC4C5)cc2c1Cl` (stereo not shown) [Cl-BZT-Me], the “specificity for 2C19 and 2C18 isozymes” value in data set [1] is “strong specificity”. Turning to `CCOc1cc(C2(OC)OOC23C2CC4CC3CC(Cl)(C4)C2)ccc1Cl` (stereo not shown) [CDP-Star-Et, CDP-Star-ET], in data set [1], the “specificity for 2C19 and 2C18 isozymes” value was “strong specificity”.
